What was measured:
EP4 receptor = target: T1, EP4 receptor (Homo sapiens, UniProt P35408); experiment: EP4 receptor antagonistic activity by measurement of cAMP amount in human Jurkat cells (HTRF); format: cell-based; conditions: inhibition of cAMP, PGE2 100 nM
T1 construct: endogenous in cells; host or cells: Jurkat cells (human leukemia T lymphoma), no transfection described
Experimental: Evaluation Test of EP4 Receptor Antagonistic Activity by Measurement of cAMP Amount in Human Jurkat Cells
Jurkat cells (derived from human leukemia T lymphoma) were cultured with RPMI1640 (added with 10% fetal bovine serum) using a F75 flask. After proliferation to semiconfluency, indomethacin having a final concentration of 5 μM was added thereto, and the cells were further cultured for 18 hours. The cells were collected in a 15-mL Spitz tube, prepared to be 1×10^6 cells/mL using a Cell Banker (Mitsubishi Kagaku Iatron), and stored at −80° C. until used for assay. The cells were cultured in a CO2 incubator (37° C., 5% CO2).
A cAMP HiRange kit (Cisbio international) was used for cAMP measurement. A test compound, PGE2, and the cells were diluted and prepared with an assay buffer. The test compound was prepared to have a 3-fold concentration relative to the final concentration, PGE2 was prepared to be 300 nM, and the Jurkat cells frozen stored were prepared to be 1×10^6 cells/mL by thawing them at 37° C. To a 384-well U-bottom black microplate (Corning) were added the test compound, the cells, and PGE2 in this order in each in an amount of 5 μL, followed by shaking with a plate shaker and incubating at room temperature for 30 minutes. After incubation, 5 μL of a d2 reagent which had been diluted 0.6-fold with a lysis buffer was added to each well, followed by shaking with a plate shaker. Subsequently, 5 μL of an europium cryptate reagent which had been diluted 0.6-fold with a lysis buffer was added to each well, followed by shaking with a plate shaker and incubating at room temperature for 60 minutes under light shielding. After incubation, the fluorescence of the cryptate at 620 nm and the fluorescence of the d2 at 655 nm were measured using ARVO1420 (PerkinElmer). The cAMPs of 280, 70, 17.5, 4.38, 1.09, 0.27, and 0.068 nM were measured simultaneously for creating a standard curve. All measurements were performed in quadruplicate, and inhibitory rates were calculated by determining the cAMP amount of each test sample to the value obtained by subtracting the cAMP amount of the group without addition of PGE2 from the cAMP amount of the group with addition of PGE2 of 100 nM. IC50 values were calculated by a Logistic regression method.
In this connection, as the “assay buffer” and “lysis buffer” above, those as shown below were used:
Assay buffer; 1×HBSS (Hanks buffered salt solution, Nissui Pharmaceutical Co., Ltd.), 20 mM HEPES (pH 7.4, Nakarai Tesque), 0.5 mM IBMX (3-isobutyl-1-methylxanthine, WAKO), 0.02% CHAPS (Sigma), 0.1% Bovine serum albumin (Sigma), 2 μM Indomethacin (Sigma)
Lysis buffer; 50 mM NaPO4, 0.8 M KF, 1% Triton X-100, 0.2% Bovine serum albumin

T1 sequence (P35408 whole entry): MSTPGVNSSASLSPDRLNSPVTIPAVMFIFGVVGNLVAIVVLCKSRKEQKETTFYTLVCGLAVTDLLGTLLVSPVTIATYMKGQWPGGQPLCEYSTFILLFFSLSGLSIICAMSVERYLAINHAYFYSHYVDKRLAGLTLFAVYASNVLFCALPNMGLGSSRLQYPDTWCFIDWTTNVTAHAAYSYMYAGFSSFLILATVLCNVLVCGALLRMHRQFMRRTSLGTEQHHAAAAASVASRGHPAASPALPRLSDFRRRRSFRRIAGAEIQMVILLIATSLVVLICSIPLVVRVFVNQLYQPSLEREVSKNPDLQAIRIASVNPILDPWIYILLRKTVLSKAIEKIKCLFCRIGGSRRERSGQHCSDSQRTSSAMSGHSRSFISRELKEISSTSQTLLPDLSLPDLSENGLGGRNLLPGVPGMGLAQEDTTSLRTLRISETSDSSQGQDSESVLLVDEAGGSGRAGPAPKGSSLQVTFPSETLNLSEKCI

IC50 (EP4 receptor) | melting point | Structure (SMILES)
0.094 nM | – | O=C(NC[C@H]1CC[C@H](C(=O)O)CC1)c1cc(Cl)cc2ccn(Cc3ccc4ccccc4n3)c12 [Example 53]
0.037 nM | 243 to 244 °C (dec.) | O=C(O)c1ccc(CNC(=O)c2cc(Cl)cc3ccn(Cc4ccc5ccccc5n4)c23)cc1 [Example 57]
0.15 nM | – | O=C(NC[C@H]1CC[C@H](C(=O)O)CC1)c1cc(C(F)(F)F)cc2ccn(Cc3ccc4ccccc4n3)c12 [Example 124]

Reference: US8598355B2, “Amide compound” (Astellas Pharma Inc., priority 2008, dated 2013)
